Measurements taken from ChEMBL document CHEMBL4765465, “Photoactive Bifunctional Degraders: Precision Tools To Regulate Protein Stability” (J Med Chem, 2020).

Tests used:
[1] = Half life of compound by UV-Visible spectrophotometric method; assay type: physicochemical
CWR22R = assay: Growth inhibition of human 22Rv1 cells preincubated for 15 mins followed by UV irradiation and measured after 72 hrs by Celltiter-Glo assay; assay type: functional; settings: time 72.25 hrs

half-life [1] [min]	Structure (SMILES)	growth inhibition (GI) (CWR22R)
58	COc1cc(COC(=O)N2C(=O)CCC(N3C(=O)c4cccc(OCC(=O)NCCCCNC(=O)C[C@@H]5N=C(c6ccc(Cl)cc6)c6c(sc(C)c6C)-n6c(C)nnc65)c4C3=O)C2=O)c([N+](=O)[O-])cc1OC (some centres not stated)	
	Cc1sc2c(c1C)C(c1ccc(Cl)cc1)=N[C@@H](CC(=O)NCCOCCOCCNC(=O)COc1cccc3c1C(=O)N(C1CCC(=O)N(COC(C)c4cc5c(cc4[N+](=O)[O-])OCO5)C1=O)C3=O)c1nnc(C)n1-2 (some centres not stated)	<=39%
